In patent publication US8354502B2, “Bioactive peptides identified in enzymatic hydrolyzates of milk caseins and method of obtaining same” (Consejo Superior de Investigaciones Cientificas, priority 2005, dated 2013):
Like-named read-outs stand apart in the source and are kept apart here. Where a SMILES comes first, the peptide text is derived from it. Where no end group is shown, it is not given here.

Columns and labels:
[1] = tested on: spontaneously hypertensive rats (SHR); experiment: Antihypertensive activity in spontaneously hypertensive rats (SHR), tail cuff SBP and DBP; format: in vivo, rat; conditions: 2 mg/kg, intragastric catheter
Method: The effect of several of the peptides identified on the blood pressure of spontaneously hypertensive rats (SHR) is studied. The peptides are chemically synthesized for this study.
The study is conducted with male SHR rats 17-20 weeks of age weighing 300 to 350 g, from Charles River Laboratories España S. A. The rats are kept in cages, five per cage, maintaining a stable temperature of 25° C., with 12-hour light-darkness cycles, taking water and food ad libitum. […] The SBP and DBP values are determined by taking 3 consecutive measurements and calculating the average of the three values for each one of these two variables. […]
The products to be tested are administered by means of an intragastric catheter within a time span ranging from 9 a.m. to 10 a.m., and the dosage tested is administered dissolved in 1 ml of distilled water. SBP and DBP readings are taken prior to the administration, and periodic measurements of these variables are also made every 2 hours following the administration, up to 8 hours post-administration. […]
The results are grouped and the ±average of the standard error of the measurement (SEM) for a minimum of 6 homogeneous tests is calculated. […]

[2] = target: T1, angiotensin-converting enzyme (ACE) (Oryctolagus cuniculus, UniProt P12822); experiment: Angiotensin-converting enzyme inhibitory activity (ACEIa) in vitro; format: biochemical
T1 sequence (P12822 34-1310): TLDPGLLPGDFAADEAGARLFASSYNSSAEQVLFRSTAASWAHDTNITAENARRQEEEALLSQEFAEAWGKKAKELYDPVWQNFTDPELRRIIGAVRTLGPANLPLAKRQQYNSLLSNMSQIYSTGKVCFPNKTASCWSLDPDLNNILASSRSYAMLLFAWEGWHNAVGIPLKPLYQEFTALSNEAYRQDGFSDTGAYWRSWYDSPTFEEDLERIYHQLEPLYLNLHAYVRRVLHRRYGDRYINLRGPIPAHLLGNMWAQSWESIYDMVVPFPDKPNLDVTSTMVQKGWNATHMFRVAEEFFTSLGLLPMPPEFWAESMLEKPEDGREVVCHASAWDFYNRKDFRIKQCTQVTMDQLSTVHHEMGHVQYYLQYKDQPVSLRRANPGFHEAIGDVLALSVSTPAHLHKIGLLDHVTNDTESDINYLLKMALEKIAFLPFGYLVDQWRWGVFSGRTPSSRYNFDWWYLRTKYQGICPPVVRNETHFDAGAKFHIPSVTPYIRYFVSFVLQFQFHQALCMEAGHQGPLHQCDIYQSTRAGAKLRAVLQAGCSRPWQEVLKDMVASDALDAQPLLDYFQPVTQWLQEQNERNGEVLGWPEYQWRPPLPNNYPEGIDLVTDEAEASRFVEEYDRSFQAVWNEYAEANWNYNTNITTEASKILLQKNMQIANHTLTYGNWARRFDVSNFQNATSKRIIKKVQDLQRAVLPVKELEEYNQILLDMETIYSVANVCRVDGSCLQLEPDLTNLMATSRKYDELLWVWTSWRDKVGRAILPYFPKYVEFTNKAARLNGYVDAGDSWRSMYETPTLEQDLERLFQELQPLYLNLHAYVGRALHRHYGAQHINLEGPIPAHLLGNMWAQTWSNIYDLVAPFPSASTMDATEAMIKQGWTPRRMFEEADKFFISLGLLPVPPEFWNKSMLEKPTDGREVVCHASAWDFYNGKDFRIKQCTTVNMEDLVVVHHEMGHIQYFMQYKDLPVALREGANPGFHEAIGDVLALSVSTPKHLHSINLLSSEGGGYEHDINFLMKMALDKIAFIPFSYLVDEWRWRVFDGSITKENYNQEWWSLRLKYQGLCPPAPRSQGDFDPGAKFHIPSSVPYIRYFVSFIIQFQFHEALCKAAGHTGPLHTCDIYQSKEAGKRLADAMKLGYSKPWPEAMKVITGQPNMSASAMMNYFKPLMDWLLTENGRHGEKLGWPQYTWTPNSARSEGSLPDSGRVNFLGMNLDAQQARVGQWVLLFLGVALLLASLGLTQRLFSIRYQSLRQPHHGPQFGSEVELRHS
Method: The ACE-inhibitory activity is measured in vitro by the method of D. W. Cushman and H. S. Cheung (Spectrophotometric assay and properties of angiotensin-converting enzyme in rabbit lung. Biochemical Pharmacology, 1971, 20:1637-1648) later modified by […]. Yoon, D. Y. Yu, […]. Chung (Novel angiotensin-1-converting enzyme inhibitory peptides derived from recombinant human αs1-casein expressed in Escherichia coli. Journal of Dairy Research 1999, 66,431-439). The substrate, […], Sigma, Chemical Co, St. Louis, Mo., USA), is dissolved in 0.1 M borate buffer with 0.3 M NaCl, pH 8.3, to obtain a final concentration of 5 mM. 40 μL of each one of the samples whose ACE-inhibitory activity is to be assayed are added to 100 μL of substrate. The ACE enzyme ([…], Sigma) is added, dissolved in 50% glycerol and diluted at the point in time of performing the test in 1/10 bidistilled water. The reaction is carried out at 37° C. for 30 minutes in water bath. The enzyme is inactivated by reducing the pH with 150 μl HCL 1N. The hipuric acid formed is extracted with 1000 μL ethyl acetate. Following agitation in vortex for 20 seconds, it is centrifuged at 3000×g for 10 minutes at ambient temperature. 750 μL are taken from the organic phase that is heat-evaporated at 95° C. for 10 minutes. The hipuric acid residue is re-dissolved in 800 μL bidistilled water and, after agitating for 20 seconds, the absorbance at 228 nm is measured in a Dur-70 spectrophotometer from Beckman Instruments, Inc., Fullerton, USA. The following equation is used for calculating the percentage of ACE-inhibitory activity: [formula] The blank is used to correct the background absorbance. This blank contains substrate, enzyme and 20 μL bidistilled water instead of sample, and the reaction is halted at time zero. The control entailed one hundred percent of the enzymatic action on the substrate in absence of inhibitors and contains […] of water instead of sample and is incubated for the same length of time as the sample. The results are shown as IC50 (μM) or concentration at which the activity of the enzyme is inhibited by 50%. The protein concentration is determined by means of the bicinchoninic acid test (Pierce-Rockord, Ill., USA), using bovine seroalbumin as a pattern.

[3] = tested on: Staphylococcus epidermidis CECT 231; experiment: Antimicrobial activity (colony count after 2 h incubation); format: cell-based; conditions: synthetic peptide 0.05 mM
Method: (§1) The antimicrobial activity is determined in accordance with the method of A. Pellegrini, C. Deltting, U. Thomas, P. Hunziker (Isolation and characterization of four bactericidal domains in the bovine β-lactoglobulin Biochimica et Biophysica Acta, 2001, 1526:131-140) using as microorganisms Escherichia coli [American Type Culture Collection (ATCC), Rockville, Md., USA] ATCC 25922, Listeria innocua [Colección Española de Cultivos Tipo (CECT) Valencia, Spain] CECT 910T, Staphylococcus epidermidis CECT 231, Enterococcus faecalis CECT 795, Serratia marcescens CECT 854 and Staphylococcus carnosus CECT 4491T.
(§2) The bacterial suspensions are inoculated at 1% in the Tryptose Soy Broth (TSB) for Escherichia coli, Serratia marcescens and the strains of the Staphylococcus genus, or in the brain-heart infusion (BHI) broth for Enterococcus faecalis and Listeria innocua. The incubation is carried out at 37° C., except in the case of Serratia marcescens, which is at 30° C.
(§3) The bacterial innoculum, from which the work is begun, is obtained after incubating a colony grown in TSB-Agar or BHI-Agar in 10 mL of TSB or BHI overnight at 37a or 30° C. The bacterial suspension (1 mL) is diluted 1/50 with the corresponding culture medium, being incubated at the appropriate temperature for each strain up to achieving a population density of 1-4×10^8 colony-forming units (CFU) per mL. The culture is centrifuged at 2000×g for 10 minutes, the sedimented bacteria are washed twice with 15 mL phosphate buffer (pH 7.4) and the population is adjusted to 10^6 CFU/mL. On a sterile multi-well plate (Greiner Labortechnik, Frickenhausen, Germany), 50 μL of the bacterial suspension, 50 μL of the substance to be tested and 100 μL of the phosphate buffer are mixed with 2% of the appropriate culture medium in each case, and the mixture is incubated at 37° C. or 30° C. for 2 hours. After this time, the mixture is diluted to 10^−5, 100 μL of each one of the dilutions are added to TSB-Agar or BHI-Agar plates and the plates are incubated for 24 hours, after which time the colony count is taken.
(§4) The following equation is used for calculating the antimicrobial activity:
(§5) [formula] [formula] [formula] Measurement of the Angiotensin-Converting Enzyme Inhibitory Activity (ACEIa)

[4] = tested on: Listeria innocua CECT 910T; experiment: as above; format: cell-based; conditions: synthetic peptide 0.05 mM
Method: as §1, §2, §3, §4, §5

[5] = tested on: Serratia marcescens CECT 854; experiment: as above; format: cell-based; conditions: synthetic peptide 0.05 mM
Method: as §1, §2, §3, §4, §5

[6] = tested on: Staphylococcus carnosus CECT 4491T; experiment: as above; format: cell-based; conditions: synthetic peptide 0.05 mM
Method: as §1, §2, §3, §4, §5

[7] = tested on: Escherichia coli ATCC 25922; experiment: as above; format: cell-based; conditions: synthetic peptide 0.05 mM
Method: as §1, §2, §3, §4, §5

[8] = tested on: Enterococcus faecalis CECT 795; experiment: as above; format: cell-based; conditions: synthetic peptide 0.05 mM
Method: as §1, §2, §3, §4, §5

[9] = read-out: ACE-inhibitory activity CI50, synthetic peptides of FC1 and FD1 subfractions

Compound	Antimicrobial activity S. epidermidis [3]	Antimicrobial activity L. innocua [4]	Antimicrobial activity S. marcescens [5]	Antimicrobial activity S. carnosus [6]	antimicrobial activity against S. carnosus (in words) [6]	Antimicrobial activity E. coli [7]	Antimicrobial activity E. faecalis [8]	other results
CC(C)[C@H](NC(=O)[C@H](Cc1ccc(O)cc1)NC(=O)[C@@H]1CCCN1)C(=O)O [SEQ. ID. No. 15, PYV] (H-Pro-Tyr-Val-OH; N-terminus and C-terminus assumed)	–	–	–	–	–	–	–	lowering of the SBP and DBP [1]: significant lowering of the SBP and DBP; time of peak effect on the SBP after administration [1]: 2 h; IC50 ([2]; synthetic peptides resulting from simulated gastrointestinal digestion, read-out: ACE-inhibitory activity IC50): 741 µM; times less ACE-inhibitory activity than the starting peptide ([2]; versus PYVRYL): 370 times
AYFYPEL [SEQ. ID. No. 13, AYFYPEL]	–	–	–	–	–	–	–	IC50 ([2]; read-out: ACE-inhibitory activity CI50, synthetic peptides of bovine casein permeate fractions): 7.5 µM
HLPLPLL [SEQ. ID. No. 14, HLPLPLL]	–	–	–	–	–	–	–	IC50 ([2]; synthetic peptides of bovine casein permeate fractions, read-out: ACE-inhibitory activity CI50): 34.2 µM
LKKISQ [SEQ. ID. No. 1, LKKISQ]	3.6	1.11	0	>6	bactericidal activity	0.33	0	ACE-inhibitory activity (in words) [2]: potent ACE-inhibitory activity; IC50 [2, 9]: 2.1 µM
LKKISQYYQKFAWPQYL (Derived from casein) [SEQ. ID. No. 3, ovine αs2-casein fragment 165-181]	>6	>6	0.38	>6	bactericidal activity	4.63	3.32	antimicrobial activity against E. coli (in words) [7]: high degree of antimicrobial activity
PYVRYL [SEQ. ID. No. 7, PYVRYL]	–	–	–	–	–	–	–	IC50 [2, 9]: 1.94 µM
VDQHQKAMKPWTQPKTNAIPYVRYL (Derived from casein) [SEQ. ID. No. 2, ovine αs2-casein fragment 184-208]	0.61	1.71	0	>6	bactericidal activity	0.07	0	–
